Laboratory results as given in patent US20250312412A1, “METHODS FOR TREATING DRY EYE DISEASE” (The Schepens Eye Research Institute, Inc., priority 2022, published 2025).
Residues, ends and D or L forms follow the SMILES beside them.

Assays:
[1] = system: human corneal epithelial cells; assay: Co-culture of human corneal epithelial cells and Th17 cells, density and morphology by microscopy, Examples 2 and 3; type: cell-based; conditions: 0.1 μM, 1 μM, 10 μM and 100 μM; 24 hours
Experimental: A co-culture of human corneal epithelial cells and Th17 cells was prepared, to mimic the in vivo interaction between Th17 cells and cornea tissue in dry eye disease. The therapeutic efficacy of an IL-17 inhibitor to protect the human corneal epithelial cells from Th17-induced damage was tested. Immortalized human corneal epithelial cells were obtained. To acquire human Th17 cells, naïve CD4+ T cells were first purified from primary human peripheral blood mononuclear cells (StemCell) by negative selection using MACS separation, follow by in vitro polarization to Th17 cells using human Th17 cell differentiation kit (RnD Systems) in X-VIVO 15 medium (Lonza). Successful differentiation of human Th17 cells was confirmed by flow cytometry before co-culture. At about 80% confluence of human corneal epithelial cell culture, 1×10^5 Th17 cells were added, with and without an IL-17 inhibitor. After 24 hours of co-culture in the presence of the IL-17 inhibitor, the density and morphology of human corneal epithelial cells were observed under a bright-light inverted microscope equipped with a camera.
A co-culture of human corneal epithelial cells and Th17 cells was prepared, to mimic the in vivo interaction between Th17 cells and cornea tissue in dry eye disease. The therapeutic efficacy of an IL-17 inhibitor to protect the human corneal epithelial cells from Th17-induced damage was tested. […]

[2] = system: mice induced with dry eye disease; assay: Corneal fluorescein staining (CFS) score in mice with induced dry eye disease, Example 1; type: in vivo; conditions: topical to the eye, day 4 to day 12; antibody 1 wt % once or twice daily, lifitegrast 5 wt % twice daily, cyclosporine 0.05 wt % twice daily
Experimental: FIG. 1 is a graph of corneal fluorescein staining (CFS) scored using the National Eye Institute Industry Workshop Scale of 0-15, as a function of time, in days, in mice induced with dry eye disease by placing them in a controlled-environment chamber (relative humidity: <20%, dry airflow: 15 L/min, temperature: 21˜23° C.) for 14 days. Corneal epithelial disease was evaluated using corneal fluorescein staining (CFS) and scored using the National Eye Institute Industry Workshop Scale of 0-15, at day 0 (normal baseline), day 4 (before instillation of topical therapy), day 7, day 10, and […] in mice treated by topical application to the eye with an anti-IL-17A antibody once daily (closed circles) or twice daily (closed squares), lifitegrast (XIIDRA®) twice daily (inverted triangles), cyclosporine (RESTASIS®) twice daily (triangles), or saline twice daily (diamonds).
In a first study, described in Example 1, treatment of dry eye disease with an IL-17 cytokine inhibitor, lifitegrast ophthalmic solution (XIIDRA®), and cyclosporine ophthalmic emulsion (RESTASIS®) were compared. […] The test compounds were applied topically to the eye for 9 days (from day 4 to day 12), and disease severity was evaluated using corneal fluorescein staining (CFS) and scored using the National Eye Institute Industry Workshop Scale of 0-15 on days 4, 7, 10 and 12. […]

[3] = system: goblet cells; assay: Goblet cell count in conjunctival tissue sections of dry eye mice, Example 1; type: in vivo; conditions: conjunctiva, mice with dry eye disease treated twice daily
Experimental: With continued reference to the study of Example 1, ocular tissue was harvested from the mice and tissue sections were prepared for microscopy analysis. Cross-sections of the conjunctiva were stained and the images were inspected to quantify goblet cell density. Goblet cells within the conjunctival epithelium secrete mucins onto the surface of the eye. FIG. 3A is an image of conjunctiva from a healthy mouse with no dry eye disease, and the goblet cells are visible as the darkly stained, plump cells. FIGS. 3B-3E are images from the conjunctiva from a subject in the animals with dry eye disease and treated twice daily with saline as a control (FIG. 3B), cyclosporine ophthalmic emulsion (RESTASIS®; FIG. 3C), lifitegrast ophthalmic solution (XIIDRA®) (FIG. 3D), or anti-IL-17A antibody (FIG. 3E). The numbers of goblet cells were counted, and FIG. 3F is a bar graph of the percent of normal goblet cells for the normal (healthy) mice and mice with dry eye disease treated with saline, cyclosporine, lifitegrast or an IL-17A inhibitor. […] Subjects with dry eye disease and treated with cyclosporine or with lifitegrast had about 60% of the normal number of goblet cells. […]

| Structure (SMILES) | toxicity to human corneal epithelial cells [1] | effect on dry eye disease severity (disease score, CFS) [2] | goblet cells, percent of the normal number [3] |
| --- | --- | --- | --- |
| CC[C@H](C)[C@H](NC(=O)[C@H](Cc1c[nH]c2ccccc12)NC(=O)[C@H](CC(=O)O)NC(=O)[C@H](Cc1c[nH]c2ccccc12)NC(=O)[C@H](CC(C)C)NC(=O)[C@H](CC(=O)O)NC(=O)[C@H](C)NC(=O)[C@@H]1CCCN1C(=O)[C@@H](NC(=O)[C@@H](NC(=O)[C@@H](NC(=O)[C@H](Cc1c[nH]cn1)NC(=O)[C@@H](N)C(C)C)C(C)C)[C@@H](C)O)[C@@H](C)CC)C(=O)N[C@@H](CC(N)=O)C(=O)N[C@@H](CCCCN)C(=O)O [SEQ ID NO: 1, VHVTIPADLWDWINK] (H-VHVTIPADLWDWINK-OH) | not toxic to the human corneal epithelial cells | – | – |
| CS(=O)(=O)c1cccc(C[C@H](NC(=O)c2c(Cl)cc3c(c2Cl)CCN(C(=O)c2ccc4ccoc4c2)C3)C(=O)O)c1 [lifitegrast] | – | no improvement in reducing in disease severity for the first six days of treatment, followed by an improved disease score at day 12 | about 60% |
